Experimental data from US10479795B2 (Incyte Corporation, priority 2016, dated 2019).
Where a name gives a salt, the structure may show the parent alone. Read-outs that look alike come from different tables or passages of the source.

Experiments:
[1] = molecular target: PI3Kδ (p110δ/p85α) Recombinant Human Protein (Homo sapiens (Human), UniProt O00329); assay: PI3Kδ Scintillation Proximity Assay; format: biochemical
Outline: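 Assay conditions: 2 μM ATP (radiolabelled), 20 μM PIP2, 3.4 nM PI3Kδ, 20 mM MOPS pH 6.7 with 10 mM MgCl2, 5 mM DTT, 0.03% CHAPS, 2 h at room temperature. Signal from bead-captured 33P product; IC50 versus solvent control.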

[2] = tested on: Phosphorylated Ribosomal Protein S6 (RPS6); assay: THP-1 RPS6 ELISA Assay; format: cell-based, Human; details: THP-1 cells, read-out: PI3Kγ_THP1_RPS6_ELISA IC50
Outline: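 IC50 values come from a curve of percent inhibition against log compound concentration, using phospho-RPS6 ELISA (450 nm) on THP-1 lysates. Cells were serum-starved overnight, exposed to compound for 2 h at 37 °C, then challenged 15 min with 10 nM MCP-1.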

[3] = molecular target: PI3Kγ (p110γ) Recombinant Human Protein (Homo sapiens (Human), UniProt P48736); assay: PI3K-γ Scintillation Proximity Assay; format: biochemical; details: read-out: PI3Kγ IC50
Outline: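 Radiometric SPA readout: […] bound to WGA beads after overnight shaking, IC50 derived from % activity of DMSO control. Reaction used human p110γ, 2 μM ATP, 20 μM PIP2, pH 6.7 MOPS buffer with MgCl2, DTT, CHAPS, 2% DMSO, room temperature.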

Chain of PI3Kδ (p110δ/p85α) Recombinant Human Protein (O00329 whole entry): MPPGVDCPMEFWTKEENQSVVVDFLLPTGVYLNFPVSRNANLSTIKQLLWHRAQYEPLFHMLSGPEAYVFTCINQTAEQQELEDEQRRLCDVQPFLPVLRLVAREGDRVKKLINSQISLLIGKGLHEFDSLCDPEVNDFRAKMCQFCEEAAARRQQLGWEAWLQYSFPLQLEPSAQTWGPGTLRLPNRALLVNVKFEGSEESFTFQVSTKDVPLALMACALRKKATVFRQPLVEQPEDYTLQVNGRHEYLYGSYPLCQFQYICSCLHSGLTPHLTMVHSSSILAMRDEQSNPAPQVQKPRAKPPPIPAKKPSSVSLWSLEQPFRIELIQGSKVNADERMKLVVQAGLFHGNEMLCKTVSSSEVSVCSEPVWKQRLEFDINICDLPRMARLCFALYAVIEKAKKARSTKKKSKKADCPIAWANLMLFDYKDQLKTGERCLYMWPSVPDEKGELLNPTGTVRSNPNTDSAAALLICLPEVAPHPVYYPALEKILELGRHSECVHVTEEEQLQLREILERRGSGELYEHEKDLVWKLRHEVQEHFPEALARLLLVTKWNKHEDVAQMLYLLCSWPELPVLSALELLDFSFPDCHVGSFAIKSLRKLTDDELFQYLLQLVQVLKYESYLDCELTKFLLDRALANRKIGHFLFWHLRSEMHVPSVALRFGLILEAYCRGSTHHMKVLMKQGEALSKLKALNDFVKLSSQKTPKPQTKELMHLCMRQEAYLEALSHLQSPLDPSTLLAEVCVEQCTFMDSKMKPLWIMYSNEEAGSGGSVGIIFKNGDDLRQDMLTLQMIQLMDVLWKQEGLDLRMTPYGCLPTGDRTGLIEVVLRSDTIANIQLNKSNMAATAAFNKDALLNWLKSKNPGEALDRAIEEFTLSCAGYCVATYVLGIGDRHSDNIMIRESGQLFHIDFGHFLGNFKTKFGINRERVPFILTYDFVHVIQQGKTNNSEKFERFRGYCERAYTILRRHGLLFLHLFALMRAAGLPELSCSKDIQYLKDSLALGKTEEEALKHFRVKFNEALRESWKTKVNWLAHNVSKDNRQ
Chain of PI3Kδ (p110δ/p85α) Recombinant Human Protein (P27986 whole entry partner): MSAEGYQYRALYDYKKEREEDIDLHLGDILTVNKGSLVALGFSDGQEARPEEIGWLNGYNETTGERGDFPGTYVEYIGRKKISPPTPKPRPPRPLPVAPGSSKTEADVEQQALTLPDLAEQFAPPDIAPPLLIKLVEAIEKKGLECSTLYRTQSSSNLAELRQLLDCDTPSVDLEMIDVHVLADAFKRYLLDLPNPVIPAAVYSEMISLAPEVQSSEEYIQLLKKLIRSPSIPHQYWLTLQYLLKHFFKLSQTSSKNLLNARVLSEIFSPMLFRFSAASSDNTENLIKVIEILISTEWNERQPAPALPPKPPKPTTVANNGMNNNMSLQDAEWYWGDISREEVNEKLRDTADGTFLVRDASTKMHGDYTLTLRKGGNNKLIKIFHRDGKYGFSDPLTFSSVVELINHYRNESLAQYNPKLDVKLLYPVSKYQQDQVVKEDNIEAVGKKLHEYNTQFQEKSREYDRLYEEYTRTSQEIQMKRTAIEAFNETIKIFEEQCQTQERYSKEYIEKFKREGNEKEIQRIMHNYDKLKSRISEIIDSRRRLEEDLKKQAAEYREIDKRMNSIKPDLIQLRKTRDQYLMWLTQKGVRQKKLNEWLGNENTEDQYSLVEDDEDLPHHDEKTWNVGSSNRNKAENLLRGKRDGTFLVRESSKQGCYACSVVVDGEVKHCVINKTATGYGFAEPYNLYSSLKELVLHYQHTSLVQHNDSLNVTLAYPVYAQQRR
Chain of PI3Kγ (p110γ) Recombinant Human Protein (P48736 whole entry): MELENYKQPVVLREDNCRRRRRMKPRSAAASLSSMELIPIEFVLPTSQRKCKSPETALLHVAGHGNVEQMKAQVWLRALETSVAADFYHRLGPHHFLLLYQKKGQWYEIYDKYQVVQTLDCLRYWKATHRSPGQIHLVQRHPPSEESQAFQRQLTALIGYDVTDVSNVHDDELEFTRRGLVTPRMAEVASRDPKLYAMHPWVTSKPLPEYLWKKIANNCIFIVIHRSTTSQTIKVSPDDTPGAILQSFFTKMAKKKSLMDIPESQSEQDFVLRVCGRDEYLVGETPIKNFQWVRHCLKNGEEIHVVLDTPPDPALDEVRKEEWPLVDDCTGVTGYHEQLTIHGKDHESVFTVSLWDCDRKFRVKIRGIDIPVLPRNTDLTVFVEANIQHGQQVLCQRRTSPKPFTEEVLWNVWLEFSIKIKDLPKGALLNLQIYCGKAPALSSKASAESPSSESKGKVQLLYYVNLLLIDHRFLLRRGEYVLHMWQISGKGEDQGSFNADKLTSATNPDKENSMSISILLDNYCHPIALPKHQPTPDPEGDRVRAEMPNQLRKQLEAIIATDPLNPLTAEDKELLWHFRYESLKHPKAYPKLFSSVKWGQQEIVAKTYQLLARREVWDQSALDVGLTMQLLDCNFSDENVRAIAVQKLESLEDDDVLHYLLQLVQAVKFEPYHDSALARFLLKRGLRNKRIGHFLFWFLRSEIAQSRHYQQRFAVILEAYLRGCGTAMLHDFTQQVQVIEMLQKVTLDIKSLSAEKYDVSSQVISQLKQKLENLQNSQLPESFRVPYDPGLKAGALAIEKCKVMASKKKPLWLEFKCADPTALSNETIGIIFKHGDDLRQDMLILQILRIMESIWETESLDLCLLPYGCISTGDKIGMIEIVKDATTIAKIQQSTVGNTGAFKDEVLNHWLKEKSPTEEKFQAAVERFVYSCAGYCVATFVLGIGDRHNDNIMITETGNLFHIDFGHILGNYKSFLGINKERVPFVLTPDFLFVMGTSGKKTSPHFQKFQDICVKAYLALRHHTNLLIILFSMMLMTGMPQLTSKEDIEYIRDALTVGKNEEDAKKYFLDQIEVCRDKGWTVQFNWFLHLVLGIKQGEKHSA

| SMILES | IC50 [1] [nM] | IC50 [3] [nM] | IC50 ([2]; Homo sapiens) [nM] | IC50 [2] [nM] |
| --- | --- | --- | --- | --- |
| N#CC12CCC(NS(=O)(=O)c3cc(-c4cnc5c(N)ncnn45)ccc3F)(C1)C2 [Example 365, 5-(4-Aminoimidazo[1,2-f][1,2,4]triazin-7-yl)-N-(4-cyanobicyclo[2.1.1]hexan-1-yl)-2-fluorobenzenesulfonamide trifluoroacetate salt] | 100 to 500 | < 100 |  | 100 to 500 |
| Nc1ncnn2c(-c3ccc(Cl)c(S(=O)(=O)NC45CCC(CO)(C4)C5)c3)cnc12 [Example 367, 5-(4-Aminoimidazo[1,2-f][1,2,4]triazin-7-yl)-2-chloro-N-(4-(hydroxymethyl)bicyclo[2.1.1]hexan-1-yl)benzenesulfonamide trifluoroacetate salt] | 100 to 500 | < 100 |  | > 1000 |
| [2H]C([2H])([2H])c1ccc(S(=O)(=O)NC23CC(CC#N)(C2)C3)cc1-c1cnc2c(N)ncnn12 [Example 371, trifluoroacetate salt] | 100 to 500 | < 100 | 100 to 500 |  |
| Cc1c(F)cc(S(=O)(=O)NC23CCC(CO)(CC2)OC3)cc1-c1cnc2c(N)ncnn12 [Example 375, 3-(4-aminoimidazo[1,2-f][1,2,4]triazin-7-yl)-5-fluoro-N-(1-(hydroxymethyl)-2-oxabicyclo[2.2.2]octan-4-yl)-4-methylbenzenesulfonamide trifluoroacetate salt] | 100 to 500 | < 100 |  | < 100 |
| C[C@]1(O)CC[C@H](NS(=O)(=O)c2cc(-c3cnc4c(N)ncnn34)ccc2F)CC1 [Example 376, 5-(4-aminoimidazo[2,1-f][1,2,4]triazin-7-yl)-2-fluoro-N-((1r,4r)-4-hydroxy-4-methylcyclohexyl)benzenesulfonamide] | 100 to 500 | < 100 |  | > 1000 |
| C[C@]1(O)CC[C@H](NS(=O)(=O)c2cc(-c3cnc4c(N)ncnn34)ccc2Cl)CC1 [Example 377, 5-(4-aminoimidazo[2,1-f][1,2,4]triazin-7-yl)-2-chloro-N-((1r,4r)-4-hydroxy-4-methylcyclohexyl)benzenesulfonamide] | < 100 | < 100 |  | < 100 |
| Cc1cn2c(-c3ccc(F)c(S(=O)(=O)NC45CCC(C#N)(C4)C5)c3)cnc2c(N)n1 [Example 380, 5-(8-Amino-6-methylimidazo[1,2-a]pyrazin-3-yl)-N-(4-cyanobicyclo[2.1.1]hexan-1-yl)-2-fluorobenzenesulfonamide trifluoroacetate salt] | 500 to 2000 | < 100 | > 1000 |  |
| Cc1cn2c(-c3ccc(Cl)c(S(=O)(=O)N[C@H]4CC[C@](C)(O)CC4)c3)cnc2c(N)n1 [Example 385, 5-(8-amino-6-methylimidazo[1,2-a]pyrazin-3-yl)-2-chloro-N-((1r,4r)-4-hydroxy-4-methylcyclohexyl)benzenesulfonamide] | < 100 | < 100 |  | 100 to 500 |
| O=C(O)C(F)(F)F.[2H]C([2H])([2H])c1ccc(S(=O)(=O)NC23CCC(C#N)(C2)C3)cc1-c1cnc2c(N)nc(C)nn12 [Example 386, 3-(4-Amino-2-methylimidazo[2,1-f][1,2,4]triazin-7-yl)-N-(4-cyanobicyclo[2.1.1]hexan-1-yl)-4-(methyl-d3)benzenesulfonamide trifluoroacetate salt] | 100 to 500 | < 100 | < 100 |  |
| Cc1nc(N)c2ncc(-c3ccc(F)c(S(=O)(=O)NC45CCC(C#N)(C4)C5)c3)n2n1 [Example 387, 5-(4-Amino-2-methylimidazo[1,2-f][1,2,4]triazin-7-yl)-N-(4-cyanobicyclo[2.1.1]hexan-1-yl)-2-fluorobenzenesulfonamide trifluoroacetate salt] | 100 to 500 | < 100 |  | < 100 |
| Cc1nc(N)c2ncc(-c3ccc(F)c(S(=O)(=O)NC45CC(C#N)(C4)C5)c3)n2n1 [Example 388, 5-(4-Amino-2-methylimidazo[1,2-f][1,2,4]triazin-7-yl)-N-(3-cyanobicyclo[1.1.1]pentan-1-yl)-2-fluorobenzenesulfonamide trifluoroacetate salt] | 100 to 500 | < 100 |  | > 1000 |
| Cc1nc(N)c2ncc(-c3cc(S(=O)(=O)N[C@H]4CC[C@H](CC#N)OC4)c(Cl)cc3C)n2n1 [Example 389, 5-(4-amino-2-methylimidazo[2,1-f][1,2,4]triazin-7-yl)-2-chloro-N-((3S,6R)-6-(cyanomethyl)tetrahydro-2H-pyran-3-yl)-4-methylbenzenesulfonamide] | < 100 | < 100 | < 100 |  |

More lines, main results first:

| IC50 [1] [nM] | IC50 [3] [nM] | IC50 ([2]; Homo sapiens) [nM] | SMILES | IC50 [2] [nM] |
| --- | --- | --- | --- | --- |
| 500 to 2000 | < 100 | 500 to 1000 | [2H]C([2H])([2H])c1ccc(S(=O)(=O)NC23CCC(O)(C2)C3)cc1-c1cnc2c(N)ncnn12 [Example 374, 3-(4-Aminoimidazo[2,1-f][1,2,4]triazin-7-yl)-N-(4-hydroxybicyclo[2.1.1]hexan-1-yl)-4-(methyl-d3)benzenesulfonamide] |  |
| 100 to 500 | < 100 | < 100 | [2H]C([2H])([2H])c1ccc(S(=O)(=O)NC23CC(CC#N)(C2)C3)cc1-c1cnc2c(N)nc(C)cn12 [Example 378, trifluoroacetate salt] |  |
| 100 to 500 | < 100 | < 100 | O=C(O)C(F)(F)F.[2H]C([2H])([2H])c1ccc(S(=O)(=O)NC23CCC(C#N)(C2)C3)cc1-c1cnc2c(N)nc(C)cn12 [Example 379, 3-(8-Amino-6-methylimidazo[1,2-a]pyrazin-3-yl)-N-(4-cyanobicyclo[2.1.1]hexan-1-yl)-4-(methyl-d3)benzenesulfonamide trifluoroacetate salt] |  |
| 100 to 500 | < 100 | 100 to 500 | Cc1cn2c(-c3cccc(S(=O)(=O)NC45CCC(CO)(C4)C5)c3)cnc2c(N)n1 [Example 381, 3-(8-Amino-6-methylimidazo[1,2-a]pyrazin-3-yl)-N-(4-(hydroxymethyl)bicyclo[2.1.1]hexan-1-yl)benzenesulfonamide] |  |
| < 100 | < 100 | < 100 | O=C(O)C(F)(F)F.[2H]C([2H])([2H])c1ccc(S(=O)(=O)NC23CCC(CO)(C2)C3)cc1-c1cnc2c(N)nc(C)cn12 [Example 383, 3-(8-Amino-6-methylimidazo[1,2-a]pyrazin-3-yl)-N-(4-(hydroxymethyl)bicyclo[2.1.1]hexan-1-yl)-4-(methyl-d3)benzenesulfonamide trifluoroacetate salt] |  |
| < 100 | < 100 | 500 to 1000 | [2H]C([2H])([2H])c1ccc(S(=O)(=O)NC23CCC(O)(C2)C3)cc1-c1cnc2c(N)nc(C)cn12 [Example 384, 3-(8-Amino-6-methylimidazo[1,2-a]pyrazin-3-yl)-N-(4-hydroxybicyclo[2.1.1]hexan-1-yl)-4-(methyl-d3)benzenesulfonamide] |  |
| 100 to 500 | < 100 | 100 to 500 | O=C(O)C(F)(F)F.[2H]C([2H])([2H])c1ccc(S(=O)(=O)NC23CCC(CO)(C2)C3)cc1-c1cnc2c(N)nc(C(F)(F)F)cn12 [Example 390, 3-(8-Amino-6-(trifluoromethyl)imidazo[1,2-a]pyrazin-3-yl)-N-(4-(hydroxymethyl)bicyclo[2.1.1]hexan-1-yl)-4-(methyl-d3)benzenesulfonamide trifluoroacetate salt] |  |
